Paper PMC6882492, “Synthesis and biological evaluation of novel thienopyrimidine derivatives as diacylglycerol acyltransferase 1 (DGAT-1) inhibitors” (Journal of Enzyme Inhibition and Medicinal Chemistry, 2019)

Key:
[1] = Tissue distribution in mice; assay type: in vivo; settings: ICR mice, 30 mg/kg oral, n = 3
Experimental: In addition, tissue distribution of 17a was investigated. 17a was orally administered to mice at 30 mg/kg, and 2 was administrated as a positive control (Figure 5). […] Significant activity of 17a in the OLTT appeared to result from high concentration in the small intestine, even though bioavailability of 17a was not great in mice.
Figure 5. Tissue distribution of 17a in mice. 17a and 2 were orally administered to ICR mice at 30 mg/kg (n = 3). (a) AUC values of 17a and 2 in indicated tissues. […] Data represent mean value. (b) Tissue-to-plasma (T/P) ratio of 17a and 2. S.I.: small intestine, L.I.: large intestine.

hDGAT1 = target: T1, hDGAT1 (Homo sapiens, UniProt O75907); assay: Enzymatic assay hDGAT1; assay type: biochemical
T1 sequence (O75907 1-488): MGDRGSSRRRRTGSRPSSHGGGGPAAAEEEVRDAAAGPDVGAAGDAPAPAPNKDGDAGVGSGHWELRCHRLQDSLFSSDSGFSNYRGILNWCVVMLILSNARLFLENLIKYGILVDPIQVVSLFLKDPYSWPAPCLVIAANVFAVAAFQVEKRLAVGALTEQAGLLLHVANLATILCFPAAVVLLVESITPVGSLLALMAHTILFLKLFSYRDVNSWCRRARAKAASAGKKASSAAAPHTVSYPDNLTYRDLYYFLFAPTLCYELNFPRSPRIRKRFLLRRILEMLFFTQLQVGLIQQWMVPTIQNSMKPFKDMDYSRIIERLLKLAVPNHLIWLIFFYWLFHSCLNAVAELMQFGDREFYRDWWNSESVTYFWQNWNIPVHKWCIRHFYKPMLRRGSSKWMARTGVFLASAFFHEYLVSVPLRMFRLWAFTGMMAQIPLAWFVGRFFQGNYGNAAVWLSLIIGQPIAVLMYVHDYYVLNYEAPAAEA
Excerpt: (§1) ACATs have sequence homology to DGAT-1 and play essential roles in cholesterol homeostasis. 17b was not explored in the enzymatic assays due to its poor pharmacokinetic profile.

[2] = target: T2, human recombinant DGAT1 enzyme expressed in insect cells (SF9 cells) (Homo sapiens, UniProt O75907); assay: DGAT-1 inhibition assay (IC50), SF9 microsomes; assay type: biochemical; settings: SF9 insect cells expressing human DGAT-1
T2 construct: made in house; host or cells: SF9 insect cells (microsomal membrane fraction)
T2 sequence (O75907 1-488): T1 sequence (O75907 1-488)
Experimental: The activity of DGAT-1 inhibitors in vitro was evaluated by using a human recombinant DGAT1 enzyme expressed in insect cells (SF9 cells). SF9 cells were homogenised by washing them with DPBS (Dulbecco’s phosphate-buffered saline) and then suspending cell pellets with a tris buffer (250 mM sucrose; 10 mM Tris-HCl [pH 7.4]; proteinase inhibitor). The resulting mixture was centrifugally separated at 10,000 × g for 30 min to remove the cell debris remaining in the lower layer thereof, and was centrifugally separated at 100,000 × g for 60 min to obtain a microsomal membrane. Further, membrane fractions were resuspended by the tris buffer, and then stored at -80 °C.
The activity of DGAT1 was measured according to the reported method. Specifically, 0.0001 – 10 μΜ (final concentration, FC) of the test compounds were cultured at room temperature (25 °C) for 15 min with a […] of SF9 microsomal protein solution and 100 mM of MgCl2 solution, and were then further cultured at room temperature (25 °C) for 30 min after the addition of 100 μΜ (FC in 12.5% EtOH) of 1,2-dioleyl-sn-glycerol and 30 μΜ (final conc.) of [14]C-oleyl coenzyme A. The reaction was completed by the addition of 300 μL of a mixed solution of 2-propanol/heptane (7:1), and radioactive triglyceride was separated from an organic solvent layer by using 200 μL of heptane and 200 μL of a 0.1 M carbonate buffer (pH 9.5). The amount of triglyceride was measured by liquid scintillography (Perkin Elmer, USA) after mixing with an organic solvent and an equivalent amount of scintillation solvent (MicroScint-O, Perkin Elmer, USA). The effects of inhibiting DGAT1 were calculated as percent in comparison with a control material.
The activities of synthesised compounds were evaluated using SF9 insect cells expressing human DGAT-1[22]. A potent DGAT-1 inhibitor, LCQ-908 (2 or pradigastat) was used as a positive control. […] The calculated lowest energy conformation model of 14c provided that the distance between the terminal carboxylic acid and NH of urea was over 16 Å, which may result in reduced activity. […]

hACAT2 = target: T3, hACAT2 (Homo sapiens, UniProt O75908); assay: Enzymatic assay hACAT2; assay type: biochemical
T3 sequence (O75908 1-522): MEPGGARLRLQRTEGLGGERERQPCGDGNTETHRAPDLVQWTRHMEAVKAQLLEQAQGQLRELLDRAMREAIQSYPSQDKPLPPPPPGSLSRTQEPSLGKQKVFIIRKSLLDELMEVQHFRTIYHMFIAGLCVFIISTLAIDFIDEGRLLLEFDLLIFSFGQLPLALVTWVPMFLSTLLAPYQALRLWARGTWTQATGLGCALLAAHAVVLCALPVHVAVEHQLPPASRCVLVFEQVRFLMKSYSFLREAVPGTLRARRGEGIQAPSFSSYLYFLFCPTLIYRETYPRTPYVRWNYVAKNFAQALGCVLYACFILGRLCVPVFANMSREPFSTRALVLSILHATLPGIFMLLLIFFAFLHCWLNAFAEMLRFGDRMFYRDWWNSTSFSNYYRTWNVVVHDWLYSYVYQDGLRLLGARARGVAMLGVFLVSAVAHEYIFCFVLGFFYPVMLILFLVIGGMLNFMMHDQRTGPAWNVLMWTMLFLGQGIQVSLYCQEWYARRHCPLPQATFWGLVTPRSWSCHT
Excerpt: as §1

hDGAT2 = target: T4, hDGAT2 (Homo sapiens, UniProt Q96PD7); assay: Enzymatic assay hDGAT2; assay type: biochemical
T4 sequence (Q96PD7 1-388): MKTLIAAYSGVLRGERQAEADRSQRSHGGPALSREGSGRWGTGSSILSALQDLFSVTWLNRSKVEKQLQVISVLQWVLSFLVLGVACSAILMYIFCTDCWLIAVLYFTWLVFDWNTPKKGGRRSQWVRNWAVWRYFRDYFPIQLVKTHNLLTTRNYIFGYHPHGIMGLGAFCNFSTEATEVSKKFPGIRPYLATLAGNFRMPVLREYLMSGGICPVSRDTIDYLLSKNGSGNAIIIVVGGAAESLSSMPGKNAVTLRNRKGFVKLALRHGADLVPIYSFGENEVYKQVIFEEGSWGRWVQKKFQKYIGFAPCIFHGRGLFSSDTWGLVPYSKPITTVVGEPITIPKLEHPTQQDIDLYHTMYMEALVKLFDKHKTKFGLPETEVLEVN
Excerpt: as §1

hACAT1 = target: T5, hACAT1 (Homo sapiens, UniProt P35610); assay: Enzymatic assay hACAT1; assay type: biochemical
T5 sequence (P35610 1-550): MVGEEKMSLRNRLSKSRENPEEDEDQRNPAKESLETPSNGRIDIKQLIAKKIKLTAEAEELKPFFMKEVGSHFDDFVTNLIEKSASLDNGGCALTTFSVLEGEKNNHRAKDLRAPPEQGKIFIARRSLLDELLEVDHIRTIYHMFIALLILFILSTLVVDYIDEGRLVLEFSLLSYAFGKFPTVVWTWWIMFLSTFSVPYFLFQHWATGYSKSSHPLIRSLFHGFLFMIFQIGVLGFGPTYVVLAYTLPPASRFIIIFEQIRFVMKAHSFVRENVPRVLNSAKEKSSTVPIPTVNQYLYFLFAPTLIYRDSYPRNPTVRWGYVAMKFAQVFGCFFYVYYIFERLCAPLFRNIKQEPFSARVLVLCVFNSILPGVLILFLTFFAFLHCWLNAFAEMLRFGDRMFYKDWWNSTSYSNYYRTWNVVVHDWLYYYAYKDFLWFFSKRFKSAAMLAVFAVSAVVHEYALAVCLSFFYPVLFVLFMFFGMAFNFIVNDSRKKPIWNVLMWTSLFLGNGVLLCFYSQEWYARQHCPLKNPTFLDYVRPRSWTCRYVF
Excerpt: as §1

[3] = Pharmacokinetic profile in ICR mice; settings: mouse, in vivo

For O=C(O)C[C@H]1CC[C@H](c2ccc(-c3ccc(Nc4ccc(C(F)(F)F)nc4)cn3)cc2)CC1 [Compound 2, pradigastat, reference compound], the “Tissue distribution (concentration levels in tissues)” value [1] was “much high concentrations in the liver and large intestine”, the IC50 (hDGAT1) was 57 nM and the IC50 [2] was 157 nM. The IC50 (hACAT2) was over 10000 nM, the IC50 (hDGAT2) was over 10000 nM and the IC50 (hACAT1) was over 10000 nM.
O=C([O-])C[C@H]1CC[C@H](c2csc3c(-c4ccc(NC(=O)Nc5cccc(Cl)c5)cc4)ncnc32)CC1.[Na+] [Compound 17b, Sodium trans-2–(4–(4-(4-(3–(3-chlorophenyl)ureido)phenyl)thieno[3,2-d]pyrimidin-7-yl)cyclohexyl)acetate] showed an IC50 [2] of 89 nM, a bioavailability ([3]; oral 10 mg/kg vs iv 3 mg/kg) of 0.7% and a Cmax ([3]; oral 10 mg/kg, n = 3) of 74.8 ng/mL. For the same molecule, the half-life ([3]; oral 10 mg/kg, n = 3) was 5.2 h and the AUC ([3]; oral 10 mg/kg, n = 3, read-out: AUC 0∼24) was 234 ng·h/mL.
